Data taken from PMC12259270, “Sensory neuron–expressed FGF13 controls nociceptive signaling in diabetic neuropathy models” (The Journal of Clinical Investigation, 2025).
Where “and” joins values, the source holds several entries; their conditions need not be identical. Equal entries are not always repeated. Residues, ends and D or L forms follow the SMILES beside them. *: point of attachment. Cbz = O=C(OCc1ccccc1)*; NHPh = c1ccc(N*)cc1; OtBu = CC(C)(C)O*

Target: T1, FGF13/Nav1.7 CTD complex (Homo sapiens, UniProt Q92913)
T1 construct: Full-length FGF13-1b (aa 1-192) was subcloned into appropriate plasmids; Nav1.7 residues 1780-1977; expressed in transfected cells; host or cells: HEK293 (inferred; the LCA paragraph only says 'cells')
T1 sequence (Q92913 1-192 isoform Q92913-2): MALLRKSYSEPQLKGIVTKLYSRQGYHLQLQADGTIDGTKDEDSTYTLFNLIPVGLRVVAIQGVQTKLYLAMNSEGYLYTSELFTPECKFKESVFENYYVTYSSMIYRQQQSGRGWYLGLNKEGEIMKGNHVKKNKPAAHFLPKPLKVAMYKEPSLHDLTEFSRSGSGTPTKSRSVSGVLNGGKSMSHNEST
Test: Split-luciferase complementation assay (LCA), CLuc-FGF13/CD4-Nav1.7-CTD-NLuc
Assay type: cell-based
Set-up: key to LCA dose response, Mean (Figure 1B): % of mean signal of per-plate 0.5% DMSO control wells
Conditions: for Percentage luminescence, Mean: Fig 1B dose response; for Luminescence signal over time, mean: FGF13, PW164
Text: The respective gene ID numbers used in this study are as follows: NM_033642 (human, FGF13-1b) and NM_002977 (human SCN9A). Full-length FGF13-1b (aa 1-192) was subcloned into appropriate plasmids for use in this investigation, unless otherwise noted. For consistency with AlphaFold modeling presented, numbering of point mutations to FGF13-1b are based on the longest FGF13 isoform (FGF13-1a, NM_004114.2). CLuc-FGF13, […]
and constructs expressing the CLuc or the NLuc fragments of Firefly ( Photinus pyralis) luciferase (24) respectively were engineered, mutated (CLuc-FGF13R110A) and sequenced at the Molecular Genomics Core (University of Texas Medical Branch). The CD4 -Nav1.7-CTD-NLuc cassette was synthesized from GeneArt (Nav1.7 residues 1780-1977) (ThermoFisher) and subcloned at 5'-HindIII and 3’-BsiWi restriction sites in pcDNA3.1 (Invitrogen). Additionally, FGF13 was amplified with polymerase chain reaction (PCR) by using gene-specific primers, and subcloned in pcDNA3.1 at 5’ -BsiWi and 3’-Not I restriction sites. […]
Cell Culture and transfections
HEK293 cells were purchased from ATCC (catalog # CRL-1573). Cells were cultured and incubated at 37 °C with 5% CO2 in medium with equal volumes of Dulbecco modified essential medium (DMEM) and F12 […]
Split-luciferase Complementation Assay (LCA)
Twenty-four hours post transfection, cells were trypsinized using TrypLE (Gibco; cat # 12604013), centrifuged at 1750 rpm for 5 min, triturated in medium, and seeded into white clear-bottom 96-well CELLSTAR µClear® plates (Greiner Bio -One; cat # 655073 ) at ~0.8 x 10^5 cells per well in 200 µl of medium. The cells were incubated for another 24 hours, and then the growth medium was replaced with 100 µl serum -free, phenol red -free DMEM/F-12 medium (Invitrogen). All compounds from the PW - and the ZL-series, including PW164 and ZL192, were dissolved in DMSO, added to a final concentration of 1 –500 μM (0.5 % DMSO) in the serum -free medium and then cells were incubated for two hours. The bioluminescence reaction was initiated by injection of 100 μl of D -luciferin substrate (1.5 mg/ml dissolved in PBS) using a Synergy H4 multimode microplate reader (BioTek). Luminescence readings were initiated after 3 s of mild plate shaking and performed at 2 min intervals for 20-30 min with integration times of 0.5 s, and the c ells were maintained throughout the measurements at 37 °C. Raw signal intensity was computed by averaging peak luminescence plus two adjacent time points.
Normalized signal intensity was expressed as the percentage of mean signal intensity relative to per plate control wells treated with 0.5% DMSO. […]
The FGF13 was immobilized to the final 1 0050 RU, and Nav1.7 to the 10 or 1000 RU, and no protein was coupled to the control channel of the chip. For each compound, stock solution (50 mM) was serially diluted from 300 to 1 µM; the Nav1.7 -CTD peptide (1876 -1899, 23 amino acids, MW ~2.8 kDa) was se rially diluted from 150 to 1 nM in PBS-P+ (PBS supplemented 0.005% with tween 20). Samples were injected over the chip for 60 s followed by dissociation for 120 s at the flow rate 40 µl/min; finally, the chip was regenerated using the solution of 1.5 M NaCl, 3% DMSO for 180 s. The interaction of compound or un-conjugated Nav1.7 -CTD peptide with FGF13, as […]

COC(=O)[C@@H](NC(=O)[C@H](CCC(=O)OC(C)(C)C)NC(=O)[C@H](CC(C)C)NC(=O)[C@@H]1CCCN1C(=O)OCc1ccccc1)C(C)C [PW164] (Cbz-PLE(OtBu)V-OMe)
LCA screening of the PW-series compounds against the FGF13/Nav1.7 complex (Fig. S2C) (50 μM, individual replicates, vehicle about 100): 52.9829 and 54.4974 and 52.792 and 43.8067 and 53.8102 and 54.3574 and 65.3028 and 53.9247 | Percentage luminescence, Mean (Log (conc(M)) -3.6): 36.225% | Percentage luminescence, Mean (Log (conc(M)) -3.82): 36.175% | Percentage luminescence, Mean (Log (conc(M)) -4): 36.8% | Percentage luminescence, Mean (Log (conc(M)) -4.12): 37.575% | Percentage luminescence, Mean (Log (conc(M)) -4.22): 41.95% | Percentage luminescence, Mean (Log (conc(M)) -4.3): 49.1% | Percentage luminescence, Mean (Log (conc(M)) -4.4): 55.95% | Percentage luminescence, Mean (Log (conc(M)) -4.6): 72.975% | Percentage luminescence, Mean (Log (conc(M)) -4.7): 78.7625% | Percentage luminescence, Mean (Log (conc(M)) -4.82): 95.2% | Percentage luminescence, Mean (Log (conc(M)) -5): 102.25% | Percentage luminescence, Mean (Log (conc(M)) -5.5): 98.45% | Percentage luminescence, Mean (Log (conc(M)) -6): 97.8125% | Luminescence signal over time, mean (Fig 1B, Time 0): 229.9 | Luminescence signal over time, mean (Fig 1B, Time 5): 547.2 | Luminescence signal over time, mean (Fig 1B, Time 10): 954.8 | Luminescence signal over time, mean (Fig 1B, Time 15): 1153.7 | Percentage luminescence, single replicates (Fig 1B, FGF13, PW164 (20 μM)): 42.7306% and 39.5799% and 34.1155% and 47.555% and 46.8165% and 80.4398% and 35.0509% and 53.5117% and 52.6748% and 30.1772% and 36.3308% | LCA analysis of FGF13/Nav1.7 (Figure 8D, WT PW164, replicate values beside WT DMSO): 48.4338 and 51.009 and 48.3348 and 45.8586 and 44.3729 and 45.9577 and 44.0758 and 49.7469 and 51.824 and 46.8389 and 47.9813 | IC50 (LCA dose response, Fig 1B, read-out: IC50, inhibition of FGF13/Nav1.7 complex assembly): 29 ± 5 µM

CC(=O)N[C@@H](Cc1ccccc1)C(=O)N[C@@H](CC(C)C)C(=O)N1CCC[C@H]1C(=O)N[C@@H](CCCCN)C(=O)Nc1ccccc1 [ZL192] (Ac-FLPK-NHPh)
LCA signal, FGF13 (Figure 1B), individual replicates (FGF13, ZL192 vs Vehicle): 148.142 and 186.697 and 151.094 and 172.833 and 154.782 and 172.987 and 159.506 and 193.88 and 161.695 and 170.692 and 150.24 and 163.294 | EC50 (LCA dose-response, Fig 4B, read-out: EC50, increase of FGF13/Nav1.7 complex assembly): 28 ± 5 µM | LCA dose response, Mean (Figure 1B) (Log (conc(M)) -3.6): 132.85 | LCA dose response, Mean (Figure 1B) (Log (conc(M)) -3.82): 139.626 | LCA dose response, Mean (Figure 1B) (Log (conc(M)) -4): 140.168 | LCA dose response, Mean (Figure 1B) (Log (conc(M)) -4.12): 146.164 | LCA dose response, Mean (Figure 1B) (Log (conc(M)) -4.22): 133.106 | LCA dose response, Mean (Figure 1B) (Log (conc(M)) -4.3): 141.107 | LCA dose response, Mean (Figure 1B) (Log (conc(M)) -4.4): 130.374 | LCA dose response, Mean (Figure 1B) (Log (conc(M)) -4.6): 116.119 | LCA dose response, Mean (Figure 1B) (Log (conc(M)) -4.7): 109.491 | LCA dose response, Mean (Figure 1B) (Log (conc(M)) -4.82): 110.318 | LCA dose response, Mean (Figure 1B) (Log (conc(M)) -5): 102.555 | LCA dose response, Mean (Figure 1B) (Log (conc(M)) -5.5): 100.737 | LCA dose response, Mean (Figure 1B) (Log (conc(M)) -6): 101.723
